# Reference: the supplement of paper PMC10702517
# ± gives the standard deviation.
# Experiment: chemical recovery by SPE of plasma after PDMS sampling; higher = better extraction
# Details: pooled human plasma; extraction method: HLB SPE of plasma after PES; equilibration time (d): 6
# 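Wherever chemical recovery by SPE of plasma after PDMS sampling is given: over 400 spiked chemicals quantified by LC-HRMS or GC-HRMS via internal standard calibration, recovery relative to spike mix added to unspiked plasma extract to correct matrix effects.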
# 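Wherever chemical recovery from spiked human plasma is given: plasma spiked with over 400 chemicals, quantified by LC-HRMS and GC-HRMS via internal standard calibration against matrix-matched unspiked plasma extracts plus spike mix.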
row,SMILES,chemical recovery by SPE of plasma [%]
1,c1ccc(-c2ccccc2-c2ccccc2)cc1 [o-Terphenyl],2.62 ± 0.75
2,Cc1ccc(NC(=O)N(C)C)cc1Cl [Chlorotoluron],5.83 ± 0.28
3,CCNc1nc(NC(C)(C)C)nc(SC)n1 [Terbutryn],0.516 ± 0.03
4,CCOC(=O)C1=C(C)NC(C)=C(C(=O)OC)C1c1cccc([N+](=O)[O-])c1 (centres undefined) [Nitrendipin],2.81 ± 0.16
5,COCC(=O)N(c1c(C)cccc1C)C(C)C(=O)OC (centres undefined) [Metalaxyl],0.955 ± 1.6
6,O=P(c1ccccc1)(c1ccccc1)c1ccccc1 [Triphenylphosphine oxide],6.26 ± 0.28
7,C=CCOC(Cn1ccnc1)c1ccc(Cl)cc1Cl (centres undefined) [Imazalil],0.104 ± 0.0059
8,O=C(Nc1ccccc1-c1ccc(Cl)cc1)c1cccnc1Cl [Boscalid],3.13 ± 0.17
9,Clc1ccc(Cl)c(-c2cc(Cl)c(Cl)cc2Cl)c1 [PCB101],1.45 ± 0.38
10,CC(CCl)OP(=O)(OC(C)CCl)OC(C)CCl (centres undefined) [Tris(1-chloro-2-propyl)phosphate],3.1 ± 2.4
11,Clc1ccc2c(c1)CCc1cccnc1C2=C1CCNCC1 [Desloratadine],2.93 ± 0.67
12,Cc1cc(C2CC2)nc(Nc2ccccc2)n1 [Cyprodinil],0.362 ± 0.33
13,CC1CCc2cc(F)cc3c(=O)c(C(=O)O)cn1c23 (centres undefined) [Flumequine],40.3 ± 3.2
14,CC(=O)CCCCn1c(=O)c2c(ncn2C)n(C)c1=O [Pentoxifylline],25.1 ± 4.3
15,COCC(C)N(C(=O)CCl)c1c(C)csc1C (centres undefined) [Dimethenamid],1.25 ± 0.1
16,Cc1cc(=O)oc2cc(N)ccc12 [7-Amino-4-methylcoumarin],28.3 ± 3.2

row,SMILES,chemical recovery by SPE of plasma [%]
1,COCCN(C(=O)CCl)c1c(C)cccc1C [Dimethachlor],1.66 ± 0.09
2,Oc1ccc(Cl)cc1Cc1ccccc1 [Chlorophene],28.6 ± 5.6
3,COC[P+](c1ccccc1)(c1ccccc1)c1ccccc1 [(Methoxymethyl)triphenylphosphonium],48.9 ± 5.7
4,Cc1cccc(C)c1N(Cn1cccn1)C(=O)C(=O)O [Metazachlor OA],57.2 ± 4.4
5,"Cc1cc(Cc2ccc(N)c(C)c2)ccc1N [4,4'-Methylene-bis(2-methyl aniline)]",2.61 ± 0.21
6,Cc1ccc(S(N)(=O)=O)cc1 [p-Toluenesulfonamide],52.8 ± 0.84
7,C[C@]12CCC(=O)C=C1[C@@H]1C[C@@H]1[C@H]1[C@@H]3[C@@H]4C[C@@H]4[C@@]4(CCC(=O)O4)[C@@]3(C)CC[C@@H]12 [Drospirenone],1.04 ± 0.16
8,c1ccc(/N=N/c2ccccc2)cc1 [Azobenzene],0.284 ± 0.25
9,CO/C=C(/C(=O)O)c1ccccc1Oc1cc(Oc2ccccc2C#N)ncn1 [Azoxystrobin acid],45.9 ± 2.3
10,"Nc1ccc(-c2ccc(N)c(Cl)c2)cc1Cl [3,3'-Dichlorobenzidine]",14.6 ± 2.8
11,Clc1cc(Cl)c(-c2cc(Cl)c(Cl)cc2Cl)cc1Cl [PCB153],1.44 ± 0.58
12,C#C[C@]1(O)C=C[C@H]2[C@@H]3CCC4=CC(=O)CC[C@@H]4[C@H]3CC[C@@]21CC [Gestoden],11.7 ± 1.3
13,c1ccc2c(c1)[nH]c1cnccc12 [Norharmane],1.79 ± 0.061
14,Cc1c(C(C)C)c(=O)n(-c2ccccc2)n1C [Propyphenazone],2.01 ± 0.19
15,Clc1cc(Cl)c(-c2c(Cl)ccc(Cl)c2Cl)cc1Cl [PCB149],1.29 ± 0.33
16,CCCOP(=O)(OCCC)OCCC [Tripropyl phosphate],1.1 ± 0.16

# Experiment: chemical recovery from spiked human plasma; higher = better extraction
# Details: pooled human plasma; extraction method: PES+SPE (3 d PDMS equilibration then HLB SPE)
row,SMILES,chemical recovery [%]
1,CN(C)C(=O)Nc1ccc(Cl)c(Cl)c1 [Diuron],56.2 ± 5
2,Oc1ccc(Cl)cc1Cc1cc(Cl)ccc1O [Dichlorophen],78.9 ± 10
3,CNC1=C(c2cccc(C(F)(F)F)c2)C(=O)C(c2ccccc2)O1 (centres undefined) [Flurtamone],32.8 ± 7.2
4,c1ccc2sc(NC3CCCCC3)nc2c1 [N-Cyclohexyl-2-benzothiazole-amine],98.9 ± 11
5,C/C(=N\C#N)N(C)Cc1ccc(Cl)nc1 [Acetamiprid],51.9 ± 4.8
6,Cc1ccc(NC(=O)N(C)C)cc1Cl [Chlorotoluron],61.6 ± 12
7,CCOC(=O)C1=C(C)NC(C)=C(C(=O)OC)C1c1cccc([N+](=O)[O-])c1 (centres undefined) [Nitrendipin],37.1 ± 7.9
8,O=P(c1ccccc1)(c1ccccc1)c1ccccc1 [Triphenylphosphine oxide],58.6 ± 6.1
9,C=CCOC(Cn1ccnc1)c1ccc(Cl)cc1Cl (centres undefined) [Imazalil],21.3 ± 3.4
10,O=C(Nc1ccccc1-c1ccc(Cl)cc1)c1cccnc1Cl [Boscalid],63.9 ± 10
11,Clc1ccc(Cl)c(-c2cc(Cl)c(Cl)cc2Cl)c1 [PCB101],54.76 ± 0.33
12,Clc1ccc2c(c1)CCc1cccnc1C2=C1CCNCC1 [Desloratadine],2.22 ± 0.35
13,CC1CCc2cc(F)cc3c(=O)c(C(=O)O)cn1c23 (centres undefined) [Flumequine],44.1 ± 3.4
14,CC(=O)CCCCn1c(=O)c2c(ncn2C)n(C)c1=O [Pentoxifylline],57.2 ± 6.1
15,COCC(C)N(C(=O)CCl)c1c(C)csc1C (centres undefined) [Dimethenamid],59.7 ± 19
16,Cc1cc(=O)oc2cc(N)ccc12 [7-Amino-4-methylcoumarin],42.6 ± 3.4
17,COCCN(C(=O)CCl)c1c(C)cccc1C [Dimethachlor],45.9 ± 7
18,Oc1ccc(Cl)cc1Cc1ccccc1 [Chlorophene],41.5 ± 3.1
19,COC[P+](c1ccccc1)(c1ccccc1)c1ccccc1 [(Methoxymethyl)triphenylphosphonium],40.1 ± 4.1
20,CC(=O)c1cc2c(cc1C)C(C)(C)C(C)CC2(C)C (centres undefined) [Tonalide],41.1 ± 12
21,"Cc1cc(Cc2ccc(N)c(C)c2)ccc1N [4,4'-Methylene-bis(2-methyl aniline)]",1.31 ± 0.94
22,"Nc1ccc(-c2ccc(N)c(Cl)c2)cc1Cl [3,3'-Dichlorobenzidine]",39.1 ± 7.4
23,Clc1cc(Cl)c(-c2cc(Cl)c(Cl)cc2Cl)cc1Cl [PCB153],62.9 ± 9
24,c1ccc2c(c1)[nH]c1cnccc12 [Norharmane],25.1 ± 5.9
25,Cc1c(C(C)C)c(=O)n(-c2ccccc2)n1C [Propyphenazone],48.4 ± 9.9
26,Clc1cc(Cl)c(-c2c(Cl)ccc(Cl)c2Cl)cc1Cl [PCB149],56.86 ± 0.52

# Same assay, conditions: pooled human plasma; extraction method: SPE only (HLB 96-well)
row,SMILES,chemical recovery [%]
1,CCCCc1oc2ccccc2c1C(=O)c1cc(I)c(OCCN(CC)CC)c(I)c1 [Amiodarone],37.9 ± 13
2,CN(C)C(=O)Nc1ccc(Cl)c(Cl)c1 [Diuron],48.9 ± 3.2
3,"O=C(O)c1ccc(Cl)cc1Cl [2,4-Dichlorobenzoic acid]",47.3 ± 5.1
4,CO/C=C(/C(=O)OC)c1ccccc1COc1cccc(C(F)(F)F)n1 [Picoxystrobin],38.3 ± 2.8
5,CNC1=C(c2cccc(C(F)(F)F)c2)C(=O)C(c2ccccc2)O1 (centres undefined) [Flurtamone],51.2 ± 0.52
6,c1ccc2sc(NC3CCCCC3)nc2c1 [N-Cyclohexyl-2-benzothiazole-amine],51.9 ± 3.6
7,C/C(=N\C#N)N(C)Cc1ccc(Cl)nc1 [Acetamiprid],40.7 ± 3
8,ClC1=C(Cl)C2(Cl)C3C4C=CC(C4)C3C1(Cl)C2(Cl)Cl (centres undefined) [Aldrin],1.53 ± 0.48
9,c1ccc(-c2ccccc2-c2ccccc2)cc1 [o-Terphenyl],12.9 ± 2.8
10,Cc1ccc(NC(=O)N(C)C)cc1Cl [Chlorotoluron],46 ± 3.5
11,CCNc1nc(NC(C)(C)C)nc(SC)n1 [Terbutryn],46.2 ± 2.5
12,CCOC(=O)C1=C(C)NC(C)=C(C(=O)OC)C1c1cccc([N+](=O)[O-])c1 (centres undefined) [Nitrendipin],42.25 ± 0.22
13,O=P(c1ccccc1)(c1ccccc1)c1ccccc1 [Triphenylphosphine oxide],54.9 ± 1.4
14,C=CCOC(Cn1ccnc1)c1ccc(Cl)cc1Cl (centres undefined) [Imazalil],42.1 ± 3
15,O=C(Nc1ccccc1-c1ccc(Cl)cc1)c1cccnc1Cl [Boscalid],59.7 ± 2.4
16,Clc1ccc(Cl)c(-c2cc(Cl)c(Cl)cc2Cl)c1 [PCB101],1.78 ± 0.57

row,SMILES,chemical recovery [%]
1,Clc1ccc2c(c1)CCc1cccnc1C2=C1CCNCC1 [Desloratadine],30.1 ± 1.7
2,CC1CCc2cc(F)cc3c(=O)c(C(=O)O)cn1c23 (centres undefined) [Flumequine],44.8 ± 8
3,CC(=O)CCCCn1c(=O)c2c(ncn2C)n(C)c1=O [Pentoxifylline],46.9 ± 3.7
4,COCC(C)N(C(=O)CCl)c1c(C)csc1C (centres undefined) [Dimethenamid],53.9 ± 1.1
5,COCCN(C(=O)CCl)c1c(C)cccc1C [Dimethachlor],46.6 ± 1.6
6,Oc1ccc(Cl)cc1Cc1ccccc1 [Chlorophene],36.9 ± 4.1
7,COC[P+](c1ccccc1)(c1ccccc1)c1ccccc1 [(Methoxymethyl)triphenylphosphonium],36.1 ± 3.5
8,CC(=O)c1cc2c(cc1C)C(C)(C)C(C)CC2(C)C (centres undefined) [Tonalide],17.1 ± 5
9,"Cc1cc(Cc2ccc(N)c(C)c2)ccc1N [4,4'-Methylene-bis(2-methyl aniline)]",30.3 ± 9.8
10,"Nc1ccc(-c2ccc(N)c(Cl)c2)cc1Cl [3,3'-Dichlorobenzidine]",54.8 ± 17
11,Clc1cc(Cl)c(-c2cc(Cl)c(Cl)cc2Cl)cc1Cl [PCB153],1.64 ± 0.63
12,c1ccc2c(c1)[nH]c1cnccc12 [Norharmane],39.6 ± 7.7
13,O=C1CCCC=CCCCCCCCCCC1 [Velvione],0.134 ± 0.12
14,Cc1c(C(C)C)c(=O)n(-c2ccccc2)n1C [Propyphenazone],44.6 ± 2.6
15,Clc1cc(Cl)c(-c2c(Cl)ccc(Cl)c2Cl)cc1Cl [PCB149],4.51 ± 1.5
16,CCCOP(=O)(OCCC)OCCC [Tripropyl phosphate],35 ± 7.1

# Same assay, conditions: pooled human plasma; extraction method: SPE only (HLB 96-well), PES comparison experiment
row,SMILES,chemical recovery [%]
1,CN(C)C(=O)Nc1ccc(Cl)c(Cl)c1 [Diuron],55.9 ± 7.4
2,"O=C(O)c1ccc(Cl)cc1Cl [2,4-Dichlorobenzoic acid]",57 ± 6.3
3,Oc1ccc(Cl)cc1Cc1cc(Cl)ccc1O [Dichlorophen],50.4 ± 7.8
4,CO/C=C(/C(=O)OC)c1ccccc1COc1cccc(C(F)(F)F)n1 [Picoxystrobin],47.8 ± 7.1
5,CCCCC(=O)O[C@]1(C(=O)CO)[C@@H](C)C[C@H]2[C@@H]3CCC4=CC(=O)C=C[C@]4(C)[C@@]3(F)[C@@H](O)C[C@@]21C [Betamethasone-17-valerate],41.7 ± 7.8
6,CC(=O)[C@@]1(O)CC[C@H]2[C@@H]3C[C@H](C)C4=CC(=O)C=C[C@]4(C)[C@@]3(F)[C@@H](O)C[C@@]21C [Fluorometholone],50.4 ± 7.2
7,CNC1=C(c2cccc(C(F)(F)F)c2)C(=O)C(c2ccccc2)O1 (centres undefined) [Flurtamone],49.3 ± 7.7
8,Cc1cc(C2CCCCC2)n(O)c(=O)c1 [Ciclopirox],46.2 ± 16
9,c1ccc2sc(NC3CCCCC3)nc2c1 [N-Cyclohexyl-2-benzothiazole-amine],42.4 ± 6.5
10,C/C(=N\C#N)N(C)Cc1ccc(Cl)nc1 [Acetamiprid],56.8 ± 6.8
11,c1ccc(-c2ccc(C(c3ccccc3)n3ccnc3)cc2)cc1 (centres undefined) [Bifonazol],46.6 ± 10
12,ClC1=C(Cl)C2(Cl)C3C4C=CC(C4)C3C1(Cl)C2(Cl)Cl (centres undefined) [Aldrin],18.4 ± 4
13,c1ccc(-c2ccccc2-c2ccccc2)cc1 [o-Terphenyl],19.9 ± 5.7
14,Cc1ccc(NC(=O)N(C)C)cc1Cl [Chlorotoluron],50.6 ± 6.2
